Experimental data from patent US20180362485A1, “N-HYDROXYFORMAMIDE COMPOUNDS AND COMPOSITIONS COMPRISING THEM FOR USE AS BMP l, TLL1 AND/OR TLL2 INHIBITORS” (GlaxoSmithKline Intellectual Property (No. 2) Limited, priority 2015, published 2018).

Biological target: T1, human TLL2 (Homo sapiens, UniProt Q9Y6L7)
T1 construct: amino acids 26-1015 of human TLL2 (NM_012465); made in house
T1 sequence (Q9Y6L7 150-1015): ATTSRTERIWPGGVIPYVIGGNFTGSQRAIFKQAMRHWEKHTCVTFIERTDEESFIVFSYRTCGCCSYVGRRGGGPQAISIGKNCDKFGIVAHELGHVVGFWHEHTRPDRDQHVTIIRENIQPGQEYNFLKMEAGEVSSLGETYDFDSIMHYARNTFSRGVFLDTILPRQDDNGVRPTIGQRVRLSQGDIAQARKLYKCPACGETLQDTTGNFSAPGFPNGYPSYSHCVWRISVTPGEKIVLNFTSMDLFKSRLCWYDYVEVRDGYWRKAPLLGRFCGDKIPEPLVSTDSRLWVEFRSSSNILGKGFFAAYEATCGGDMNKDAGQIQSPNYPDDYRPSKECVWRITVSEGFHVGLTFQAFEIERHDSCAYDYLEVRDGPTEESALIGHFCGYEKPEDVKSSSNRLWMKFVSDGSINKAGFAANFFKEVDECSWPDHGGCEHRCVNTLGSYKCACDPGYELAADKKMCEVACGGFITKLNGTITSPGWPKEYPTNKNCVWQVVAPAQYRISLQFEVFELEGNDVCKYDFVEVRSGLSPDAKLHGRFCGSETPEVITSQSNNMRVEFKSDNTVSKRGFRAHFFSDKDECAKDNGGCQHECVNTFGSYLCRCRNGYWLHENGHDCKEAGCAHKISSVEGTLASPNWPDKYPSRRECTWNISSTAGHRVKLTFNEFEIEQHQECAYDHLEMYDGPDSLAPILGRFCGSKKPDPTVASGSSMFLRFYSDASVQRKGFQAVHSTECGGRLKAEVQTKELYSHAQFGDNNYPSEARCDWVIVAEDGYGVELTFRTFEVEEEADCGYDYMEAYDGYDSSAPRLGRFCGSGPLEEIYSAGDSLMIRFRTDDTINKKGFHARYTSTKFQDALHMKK
Test: Enzyme inhibition assay for human TLL2
Type: biochemical
Conditions: 18 nM TLL2, 5 μM promyostatin peptide substrate; read-out: pIC50, TLL2 enzyme inhibition assay (converted)
Excerpt: Buffer components are purchased from Sigma-Aldrich (St. Louis, Mo.) or an equivalent supplier. The promyostatin peptide substrate is custom synthesized by American Peptide Company (Sunnyvale, Calif.) using the myostatin protein sequence (Uniprot accession number 014793) surrounding the cleavage site reviewed in Hopkins, D. R., et al., 2007 Matrix Biology, 26, 508-523. The procollagen peptide substrate used in the high enzyme BMP1 cleavage assay is custom synthesized by 21st Century Biochemicals (Marlboro, Mass.) using the procollagen Iα protein sequence (Uniprot accession number P02452) surrounding the cleavage site reviewed in Hopkins, D. R., et al., 2007 Matrix Biology, 26, 508-523.
The DNA sequence encoding amino acids 26-1015 of human TLL2 (NM_012465) is PCR amplified from DNA template with the human RAGE signal sequence at the N-terminus and Avi-6×His epitope tags at the C-terminus ([…]). […]
Inhibition of human TLL1 and TLL2 recombinant enzymes is measured in 10 ul endpoint assays in 384-well format using the same promyostatin peptide substrate employed in the above Enzyme Inhibition Assay for human BMP1. […] TLL1 and TLL2 reactions are quenched with 5 μl of 0.5 M EDTA and plates are read on a ViewLux (Perkin Elmer) multilabel plate reader using a 480 nm excitation filter and 540 nm emission filter. […]

IC50: < 794 nM
Structure (SMILES): CCCCC[C@@H](C(=O)NCNC(=O)c1ccc(-c2ccc(C(=O)O)cc2)o1)[C@@H](CC)N(O)C=O [WO2015/104684 Example 71, 4-(5-((((R)-2-((R)-1-(N-hydroxyformamido)propyl)heptanamido)methyl)carbamoyl)furan-2-yl)benzoic acid]
